Tests used:
Format in all cases: in vivo
[1] = system: Musca domestica; assay: Topical activity against Musca domestica with synergist piperonyl butoxide (24 hours, LC50, relative to Resmethrin); conditions: Musca domestica 3-day old adult females, with 0.5% w/v piperonyl butoxide, from LC50
Experimental: (§1) The insecticidal activities of the compounds of the Examples has been shown by the following tests in four species of insects, namely Aedes aegypti, Musca domestica, Blattella germanica, and Tribolium castaneum.
(§2) (i) A 1 μl drop of a solution of test compound in AR acetone (high purity acetone) was applied to the dorsal thorax of 3-day old adult females. Knockdown was recorded after 24 hours. Solutions of different concentration were tested from which the concentration of solution and therefore the amount of compound which gives 50% kill (LC50) was determined.
(ii) Similar tests were carried out with the amendment that to each test solution, 0.5% w/v of commercial insecticide synergist, piperonyl butoxide, was added.
(§3) The results are all expressed as activities relative to the activity of Resmathrin (assigned activity=100), determined by the methods described. [formula]

[2] = system: Musca domestica; assay: Topical activity against Musca domestica, compound alone (24 hours, LC50, relative to Resmethrin); conditions: Musca domestica 3-day old adult females, without synergist, from LC50
Experimental: as §1, §2, §3

[3] = system: Tetranychus cinnabarinus; assay: Activity against Tetranychus cinnabarinus (dwarf French bean leaf dip test); conditions: foliar, Tetranychus cinnabarinus adult mites, 48 hours, read-out: Tetranychus % KD at 500.0 ppm
Text: (§4) The activities of some of the compounds of the Examples has been shown in the following tests in three species of phytophagous arthropods, namely Megoura vicae, Plutella xylostella, Tetranychus cinnabarinus.
(§5) Aqueous suspensions of test compound were made by adding a solution of test compound in AR acetone to a solution of TWEEN 80 (200 p.p.m.) in water.
The two primary leaves of dwarf French beans were reduced to 2.5 cm squares, and they were infested with ca. 20 adult mites. The leaves were then dipped for 4 seconds in the aqueous suspension of the test compound and allowed to dry. Adult mortality was recorded after 48 hours.

[4] = system: Aedes aegypti; assay: Larvicidal activity against Aedes aegypti (kill after 24 hours, LC50, relative to Resmethrin); conditions: Aedes aegypti 3 day old larvae, from LC50
Experimental: as §1
A 0.2 cm^3 sample of a solution of test compound in AR acetone was applied to water (200 cm^3) containing 20 (3 day old) larvae. Kill was recorded after 24 hours. Solutions of different concentration were tested from which the concentration of solution which gives 50% kill (LC50) was determined.
as §3

[5] = system: Blattella germanica; assay: Topical activity against Blattella germanica (24 hours, LC50, relative to Resmethrin); conditions: Blattella germanica 1-4 week old adult males, from LC50
Experimental: as §1
A 2 μl drop of a solution of the test compound in AR acetone was applied between the rear coxae of 1-4 week old adult males. Knockdown was recorded after 24 hours. Solutions of different concentration were tested from which the concentration of solution which gives 50% kill (LC50) was determined.
as §3

[6] = system: Megoura vicae; assay: Knockdown of Megoura vicae (dip test); conditions: Megoura vicae adults, knockdown after 24 hours
Text: as §4, §5
Adult insects were dipped individually for 4 seconds in the aqueous suspension of test compound and then placed on a filter paper in a Petri dish (9.0 cm diameter) with a p.t.f.e. rim. A 5.0 cm long piece of broad bean stem was added and the lid was put on. Knockdown was recorded after 24 hours.

[7] = system: Tribolium castaneum; assay: Topical activity against Tribolium castaneum (knockdown after 48 hours, LD50, relative to Resmethrin); conditions: Tribolium castaneum adults, from LD50
Experimental: as §1
A 1 μl drop of a solution of test compound in AR acetone was applied topically to adult insects. Knockdown was recorded after 48 hours. Solutions of different concentrations were tested from which the concentration of solution which gives 50% knockdown (LD50) was determined.
as §3

[8] = system: Plutella xylostella; assay: Knockdown of Plutella xylostella (cabbage leaf dip test); conditions: foliar, Plutella xylostella 3rd instar larvae, knockdown after 24 hours, read-out: Plutella % KD at 25.0 ppm
Text: as §4, §5
A 9.0 cm square of cabbage leaf was dipped for 4 seconds in the aqueous suspension of the test compound, and allowed to dry. The leaf was placed on filter paper in a Petri dish (9.0 cm). Five 3rd instar larvae were placed on the leaf, and the dish was placed in a polythene bag containing a wet cotton-wool pad. Knockdown was recorded after 24 hours.

Structure (SMILES) | Activity Relative to Resmethrin = 100, Musca with Synergist [1] | Activity Relative to Resmethrin = 100, Musca Alone [2] | mortality at 500 ppm [3] [%] | Activity Relative to Resmethrin = 100, Aedes [4] | Activity Relative to Resmethrin = 100, Blattella [5] | Megoura % KD at 1.0 ppm [6] [%] | Activity Relative to Resmethrin = 100, Tribolium [7] | mortality at 25 ppm [8] [%]
CC(C)C(C(=O)OCc1cccc(Oc2ccccc2)c1)c1ccc2ccoc2c1 (stereo not drawn) [Example 1, m-Phenoxybenzyl α-isopropylbenzofuran-6-acetate] | 87 | 88 | 65.5 | 182 | 197 | 63.7 | 102.9 | 97.5
CC(C)C(C(=O)OCc1cccc(Oc2ccccc2)c1)c1ccc2sccc2c1 (stereo not drawn) [Example 3, m-Phenoxybenzyl α-isopropylbenzo(b)thiophene-5-acetate] | 100 | 17 | 76.7 | 6.5 | 62 | 61.25 | 29.2 | 47.5
CC(C)C(C(=O)OCc1cccc(Oc2ccccc2)c1)c1cccc2occc12 (stereo not drawn) [Example 5, m-Phenoxybenzyl α-isopropylbenzofuran-4-acetate] | 27 | 9 | 33.2 | 211 | 20.7 | 32.5 | 50 | 57.5
CC(C)C(C(=O)OCc1cccc(Oc2ccccc2)c1)c1ccc2c(Cl)coc2c1 (stereo not drawn) [Example 6, m-Phenoxybenzyl 3-chloro-α-isopropylbenzofuran-6-acetate] | 110 | 20 | – | 151 | – | – | 80.4 | –
CC(C)C(C(=O)OC(C#N)c1cccc(Oc2ccccc2)c1)c1ccc2c(Cl)coc2c1 (stereo not drawn) [Example 7, α-Cyano-m-phenoxybenzyl 3-chloro-α-isopropylbenzofuran-6-acetate] | 6060 | 133 | 88.8 | 250 | 1240 | 98.3 | 411 | 100
CC(C)C(C(=O)OC(C#N)c1cccc(Oc2ccccc2)c1)c1cccc2occc12 (stereo not drawn) [Example 8, α-Cyano-m-phenoxybenzyl α-isopropylbenzofuran-4-acetate] | 926 | 125 | 100 | 108 | 206 | 66.9 | 194 | 87.5
CC(C)C(C(=O)OC(C#N)c1cccc(Oc2ccccc2)c1)c1ccc2occc2c1 (stereo not drawn) [Example 9, α-Cyano-m-phenoxybenzyl α-isopropylbenzofuran-5-acetate] | 333 | 186 | 81.7 | 174 | 1378 | 93.75 | 389 | 90
CC(C)C(C(=O)OC(C#N)c1cccc(Oc2ccccc2)c1)c1ccc2c(c1)CCO2 (stereo not drawn) [Example 10, α-Cyano-m-phenoxybenzyl 2,3-dihydro-α-isopropylbenzofuran-5-acetate] | 575 | 18 | < 20 | 286 | 207 | 0 | 159 | –
CC(C)C(C(=O)OC(C#N)c1cccc(Oc2ccccc2)c1)c1ccc2cc(Br)oc2c1 (stereo not drawn) [Example 11, α-Cyano-m-phenoxybenzyl 2-bromo-α-isopropylbenzofuran-6-acetate] | 417 | 68 | < 20 | 160 | 207 | 35 | 88 | –
CC(C)C(C(=O)OC(C#N)c1cccc(Oc2ccccc2)c1)c1ccc(Cl)c2occc12 (stereo not drawn) [Example 12, α-Cyano-m-phenoxybenzyl 7-chloro-α-isopropylbenzofuran-4-acetate] | 454 | 140 | < 10 | 417 | 207 | 15 | 100 | –
CC(C)C(C(=O)OC(C#N)c1cccc(Oc2ccccc2)c1)c1ccc(Cl)c2oc(Br)cc12 (stereo not drawn) [Example 13, α-Cyano-m-phenoxybenzyl 2-bromo-7-chloro-α-isopropylbenzofuran-4-acetate] | 417 | 10 | < 10 | 267 | < 10 | 86.6 | < 2 | –
Cc1oc2cc(C(C(=O)OC(C#N)c3cccc(Oc4ccccc4)c3)C(C)C)ccc2c1C (stereo not drawn) [Example 14, α-Cyano-m-phenoxybenzyl 2,3-dimethyl-α-isopropylbenzofuran-6-acetate] | 179 | 12 | 46.7 | 200 | 62 | 93.3 | < 17.5 | –
Cc1oc2cc(C(C(=O)OCc3cccc(Oc4ccccc4)c3)C(C)C)ccc2c1C (stereo not drawn) [Example 15, m-Phenoxybenzyl 2,3-dimethyl-α-isopropylbenzofuran-6-acetate] | 24 | 1 | 100 | 118 | < 10 | 90 | 4.7 | –
